# Results reported in patent US11834663B2, “Fibrotic treatment” (Monash University, priority 2015, dated 2023).
# What was measured:
# Type in all cases: in vivo, mouse
# aged WT mice = assay: Systolic blood pressure, body weight and cardiac hypertrophy in aged WT mice after chronic IRAP inhibition
# Experimental: There are 8 different sets of in vivo experiments in this study: • A) Phenotypic characterisation of the heart and blood vessels in global IRAP knockout mice and their WT controls treated for 4 weeks with Angiotensin (Ang) II (800 ng/kg/min; s.c.) where mouse hearts and blood vessels were compared to tissue obtained from young WT and IRAP^−/− mice treated with saline. • B) Prevention of Ang II-induced changes in the cardiovascular system following IRAP inhibitor treatment. In the prevention model, WT mice were treated with Ang II (800 ng/kg/min; s.c.)±the IRAP inhibitor (HFI-419; 500 ng/kg/min for 28 days) or HFI-vehicle (1 DMSO:3 HBC). • C) Phenotypic characterisation of the aged heart, kidney and blood vessels in the global IRAP knockout mice where aged WT and IRAP^−/− mouse hearts, kidneys and blood vessels were compared to tissue obtained from young WT and IRAP^−/− mice. • D) Reversal of the age-induced changes in the cardiovascular system following IRAP inhibitor treatment. In the reversal model, aged WT mice were treated with either saline, IRAP inhibitor (HFI-419 at 500 ng/kg/min; compound 1 at 500 ng/kg/min; compound 2 at 50 ng/kg/min) or HFI-vehicle (1 DMSO: 3 HBC) for 4 weeks. • E) Prevention of ischemic-reperfusion injury in isolated hearts taken from aged global IRAP knockout mice and aged IRAP inhibitor (HFI-419 at 500 ng/kg/min; s.c.) treated WT mice compared to age-matched vehicle-treated (1 DMSO:3 HBC; s.c.) WT controls. • F) Phenotypic characterization of cardiac function using echocardiography in the aged global IRAP knockout mice compared to aged and young WT mice. • G) Phenotypic characterization of liver steatosis in IRAP knockout mice in a high fat diet (HFD) model. • H) Reversal of the salt-induced fibrosis in the liver following IRAP inhibitor treatment.
# All mice which underwent surgery were anaesthetized with Isoflurane (Isorrane) (5% induction and 2.5% maintenance) and an incision made in the midscapular region through which osmotic minipumps (Alzet model 2004, Alza Corp) were inserted for subcutaneous drug administration. The incision area was sutured with 6/0 DY silk (Dynek Pty Ltd) and antibiotic powder applied (Cicatrin, Pfizer) followed by intramuscular injection of the analgesic Cartrophen (0.1 ml of a 1.5 mg/ml stock solution; Biopharm Australia). Systolic blood pressure (SBP) was measured fortnightly using non-invasive tail-cuff plethysmography apparatus (MC4000 Blood Pressure Analysis System, Hatteras Instrument Inc) before drug treatment (week 0), at week 2 of treatment and end of treatment (week 4). At the end of drug treatment, body weight of mice was recorded. Mice were anaesthetized using Isoflurane inhalation and killed by cervical dislocation. Organs (heart, aorta, kidneys, brain, blood and tibia) were collected, with heart and aorta being dissected appropriately as described below. All organs were then snap frozen in liquid nitrogen, and stored at −80° C. if they were not used for vascular reactivity studies conducted on the day mice were killed.
# Ventricular weight (VW) was compared to the body weight (BW) as a ratio of VW:BW (mg/g), as well as comparison of VW to tibial length (TL) in as a ratio of VW:TL (mg/mm) respectively. […] The average of 100 cardiomyocytes per heart section was performed under 60× magnification and analyzed using Image J.
# Ang II-infused WT mice = assay: Angiotensin II infusion prevention model: systolic blood pressure (tail-cuff); details: adult WT mice, Ang II 800 ng/kg/min s.c. + HFI-419 500 ng/kg/min, 4 weeks; FIG. 1
# Experimental: (§1) There are 8 different sets of in vivo experiments in this study: • A) Phenotypic characterisation of the heart and blood vessels in global IRAP knockout mice and their WT controls treated for 4 weeks with Angiotensin (Ang) II (800 ng/kg/min; s.c.) where mouse hearts and blood vessels were compared to tissue obtained from young WT and IRAP^−/− mice treated with saline. • B) Prevention of Ang II-induced changes in the cardiovascular system following IRAP inhibitor treatment. […]
# All mice which underwent surgery were anaesthetized with Isoflurane (Isorrane) (5% induction and 2.5% maintenance) and an incision made in the midscapular region through which osmotic minipumps (Alzet model 2004, Alza Corp) were inserted for subcutaneous drug administration. […] Systolic blood pressure (SBP) was measured fortnightly using non-invasive tail-cuff plethysmography apparatus (MC4000 Blood Pressure Analysis System, Hatteras Instrument Inc) before drug treatment (week 0), at week 2 of treatment and end of treatment (week 4). At the end of drug treatment, body weight of mice was recorded. […]
# [1] = tested on: kidneys of aged (18-22 month old) WT mice; assay: Reversal of age-induced kidney fibrosis in aged WT mice
# Experimental: as §1, with “treatment. In the prevention model, WT mice were treated with Ang II (800 ng/kg/min; s.c.)±the IRAP inhibitor (HFI-419; 500 ng/kg/min for 28 days) or HFI-vehicle (1 DMSO:3 HBC). • C) Phenotypic characterisation of the aged heart, kidney and blood vessels in the global IRAP knockout mice where aged WT and IRAP^−/− mouse hearts, kidneys and blood vessels were compared to tissue obtained from young WT and IRAP^−/− mice. • D) Reversal of the age-induced changes in the cardiovascular system following IRAP inhibitor treatment.” for “treatment.”
# To measure collagen deposition, frozen sections of heart, kidney or aorta (all 5 μm thickness) were air dried for 10 minutes and were brought through 3 times xylene (2 minutes each), and 3 times absolute alcohol washes before being rinsed in tap H2O for 30 seconds. […] Images were taken under ×20 magnification, using bright field (Olympus, BX51) and circularized polarized light microscopy (DM IRB, Leica) while percentage of positive interstitial collagen staining per total field of view was quantified using ImageJ 1.46 software (Java, NIH), and averaged out from a total of eight views as the final percentage collagen content in a particular animal. […]
smiles,measurement,setting,value
CCOC(=O)C1=C(NC(C)=O)Oc2cc(O)ccc2C1c1cccnc1 (stereo not drawn) [HFI-419],"systolic blood pressure, SBP","aged WT mice; chronic (4 week) HFI-419, FIG. 16a",no significant effect
same,body weight,"aged WT mice; chronic (4 week) HFI-419, FIG. 16b",no significant effect
same,"ventricular weight to body weight ratio, VW:BW","aged WT mice; chronic (4 week) HFI-419, FIG. 16c",no significant effect
same,cardiomyocyte cross-sectional area (H&E),"aged WT mice; chronic (4 week) HFI-419, FIG. 16e",no effect
same,"ventricular weight to tibial length ratio, VW:TL","aged WT mice; chronic (4 week) HFI-419, FIG. 16d",no significant effect
same,Ang II-induced increase in systolic blood pressure,Ang II-infused WT mice,attenuates
same,IRAP expression in kidneys,"[1]; aged WT mice, HFI-419 500 ng/kg/min s.c., 4 weeks, FIG. 22b",tended to be decreased
same,αSMA-positive myofibroblast expression in kidneys,"[1]; aged WT mice, HFI-419 4 weeks vs vehicle, FIG. 24b",trend towards reduced
same,"age-induced collagen deposition in kidney (interstitial fibrosis, picrosirius red)","[1]; ~20 month old WT mice, HFI-419 500 ng/kg/min s.c., 4 weeks, FIG. 23",completely reverse
